#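 Growth conditions: 96-well plates. Treatment: test compound, 48 hours, 5 concentrations. Analysis: linear interpolation between bracketing concentrations; unreached endpoints set to highest concentration. Here, GI50 denotes the concentration required for 50% inhibition of growth. Definition used: TGI = concentration required for complete inhibition of growth.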
# How the values were obtained:
# Test in all cases: NCI-60 cell line screen, 48 h
# HOP-62 NSCLC = system: HOP-62 NSCLC
# OVCAR-8 ovarian = system: OVCAR-8 ovarian
# PC-3 prostate = system: PC-3 prostate
# HOP-92 NSCLC = system: HOP-92 NSCLC
# SW-620 colon = system: SW-620 colon
# HL-60(TB) leukemia = system: HL-60(TB) leukemia
# SK-OV-3 ovarian = system: SK-OV-3 ovarian
# SNB-19 CNS = system: SNB-19 CNS
# NCI-H460 lung = system: NCI-H460 lung
# TK-10 renal = system: TK-10 renal
# T-47D breast = system: T-47D breast
# HCT-116 colon = system: HCT-116 colon
# SK-MEL-28 melanoma = system: SK-MEL-28 melanoma
# SF-539 CNS = system: SF-539 CNS
# OVCAR-3 ovarian = system: OVCAR-3 ovarian
# K-562 leukemia = system: K-562 leukemia
# M14 melanoma = system: M14 melanoma
# OVCAR-4 ovarian = system: OVCAR-4 ovarian
# UACC-62 melanoma = system: UACC-62 melanoma
# RXF 393 renal = system: RXF 393 renal
# SNB-75 CNS = system: SNB-75 CNS
# NCI-H226 lung = system: NCI-H226 lung
# MDA-MB-231 breast = system: MDA-MB-231 breast
# MALME-3M melanoma = system: MALME-3M melanoma
# SK-MEL-5 melanoma = system: SK-MEL-5 melanoma
# UACC-257 melanoma = system: UACC-257 melanoma
# IGROV1 ovarian = system: IGROV1 ovarian
# MDA-MB-435 = system: MDA-MB-435
# NCI-H23 lung = system: NCI-H23 lung
# A549 NSCLC = system: A549 NSCLC
# NCI-H522 lung = system: NCI-H522 lung
# SK-MEL-2 melanoma = system: SK-MEL-2 melanoma
# KM12 colon = system: KM12 colon
# SR leukemia = system: SR leukemia
# A498 renal = system: A498 renal
# RPMI-8226 leukemia = system: RPMI-8226 leukemia
# UO-31 renal = system: UO-31 renal
# MCF7 breast = system: MCF7 breast
# SN12C renal = system: SN12C renal
# EKVX NSCLC = system: EKVX NSCLC
# MOLT-4 leukemia = system: MOLT-4 leukemia
# CAKI-1 renal = system: CAKI-1 renal
# HT29 colon = system: HT29 colon
# HS 578T breast = system: HS 578T breast
# BT-549 breast = system: BT-549 breast
# SF-268 CNS = system: SF-268 CNS
# LOX IMVI melanoma = system: LOX IMVI melanoma
# ACHN renal = system: ACHN renal
# NCI/ADR-RES ovarian = system: NCI/ADR-RES ovarian
# HCC-2998 colon = system: HCC-2998 colon
# SF-295 CNS = system: SF-295 CNS
# HCT-15 colon = system: HCT-15 colon
# COLO 205 colon = system: COLO 205 colon
# OVCAR-5 ovarian = system: OVCAR-5 ovarian
# 786-0 renal = system: 786-0 renal
# U251 CNS = system: U251 CNS
# MDA-MB-468 breast = system: MDA-MB-468 breast
# DU-145 prostate = system: DU-145 prostate
# CCRF-CEM leukemia = system: CCRF-CEM leukemia
smiles,measurement,setting,value
O=C(Cc1ccc2c(c1)CN(C1CCC(=O)NC1=O)C2=O)NCc1cccc2ccccc12 (configuration not stated),GI50,HOP-62 NSCLC,< 10 nM
same,TGI,HOP-62 NSCLC,< 32.1 nM
same,GI50,OVCAR-8 ovarian,< 10 nM
same,GI50,PC-3 prostate,< 10 nM
same,TGI,PC-3 prostate,177 nM
same,GI50,HOP-92 NSCLC,< 10 nM
same,TGI,HOP-92 NSCLC,< 10 nM
same,GI50,SW-620 colon,< 10 nM
same,GI50,HL-60(TB) leukemia,< 10 nM
same,GI50,SK-OV-3 ovarian,< 10 nM
same,TGI,SK-OV-3 ovarian,147 nM
same,GI50,SNB-19 CNS,< 10 nM
same,TGI,SNB-19 CNS,74.2 nM
same,GI50,NCI-H460 lung,5.17 µM
same,TGI,NCI-H460 lung,> 100 µM
same,GI50,TK-10 renal,< 16.9 nM
same,TGI,TK-10 renal,751 nM
same,GI50,T-47D breast,< 10 nM
same,TGI,T-47D breast,< 10 nM
same,GI50,HCT-116 colon,54.6 nM
same,TGI,HCT-116 colon,> 100 µM
same,GI50,SK-MEL-28 melanoma,< 11.4 nM
same,TGI,SK-MEL-28 melanoma,189 nM
same,GI50,SF-539 CNS,< 10.3 nM
same,TGI,SF-539 CNS,114 nM
same,GI50,OVCAR-3 ovarian,25.9 nM
same,TGI,OVCAR-3 ovarian,1170 nM
same,GI50,K-562 leukemia,< 10 nM
same,TGI,K-562 leukemia,> 100 µM
same,GI50,M14 melanoma,< 10 nM
same,TGI,M14 melanoma,33.4 nM
same,GI50,OVCAR-4 ovarian,< 10 nM
same,TGI,OVCAR-4 ovarian,46 nM
same,GI50,UACC-62 melanoma,40.3 nM
same,TGI,UACC-62 melanoma,1420 nM
same,GI50,RXF 393 renal,< 10 nM
same,TGI,RXF 393 renal,25.7 nM
same,GI50,SNB-75 CNS,< 10 nM
same,TGI,SNB-75 CNS,< 12 nM
same,GI50,NCI-H226 lung,< 10 nM
same,TGI,NCI-H226 lung,41 nM
same,GI50,MDA-MB-231 breast,< 10 nM
same,TGI,MDA-MB-231 breast,< 10 nM
same,GI50,MALME-3M melanoma,< 10 nM
same,TGI,MALME-3M melanoma,< 10 nM
same,GI50,SK-MEL-5 melanoma,< 10 nM
same,TGI,SK-MEL-5 melanoma,< 11.9 nM
same,GI50,UACC-257 melanoma,350 nM
same,TGI,UACC-257 melanoma,> 100 µM
same,GI50,IGROV1 ovarian,< 10 nM
same,TGI,IGROV1 ovarian,< 15.7 nM
same,GI50,MDA-MB-435,< 10 nM
same,TGI,MDA-MB-435,163 nM
same,GI50,NCI-H23 lung,88.6 nM
same,TGI,NCI-H23 lung,3.99 µM
same,GI50,A549 NSCLC,14.6 nM
same,TGI,A549 NSCLC,> 100 µM
same,GI50,NCI-H522 lung,29.1 nM
same,TGI,NCI-H522 lung,351 nM
same,GI50,SK-MEL-2 melanoma,< 10 nM
same,TGI,SK-MEL-2 melanoma,19.2 nM
same,GI50,KM12 colon,< 10 nM
same,TGI,KM12 colon,461 nM
same,GI50,SR leukemia,92.9 nM
same,TGI,SR leukemia,> 100 µM
same,GI50,A498 renal,< 10 nM
same,TGI,A498 renal,72.8 nM
same,GI50,RPMI-8226 leukemia,< 11.3 nM
same,TGI,RPMI-8226 leukemia,> 100 µM
same,GI50,UO-31 renal,< 11.5 nM
same,TGI,UO-31 renal,87.7 nM
same,GI50,MCF7 breast,< 10 nM
same,TGI,MCF7 breast,> 33.3 µM
same,GI50,SN12C renal,< 10 nM
same,TGI,SN12C renal,88.2 nM
same,GI50,EKVX NSCLC,< 22.4 nM
same,GI50,MOLT-4 leukemia,< 10 nM
same,TGI,MOLT-4 leukemia,> 100 µM
same,GI50,CAKI-1 renal,< 10 nM
same,TGI,CAKI-1 renal,6.38 µM
same,GI50,HT29 colon,10.2 nM
same,TGI,HT29 colon,108 nM
same,GI50,HS 578T breast,< 10 nM
same,TGI,HS 578T breast,< 17.9 nM
same,GI50,BT-549 breast,< 10 nM
same,TGI,BT-549 breast,< 10 nM
same,GI50,SF-268 CNS,< 10 nM
same,TGI,SF-268 CNS,260 nM
same,GI50,LOX IMVI melanoma,41.5 nM
same,TGI,LOX IMVI melanoma,2510 nM
same,GI50,ACHN renal,52.6 nM
same,TGI,ACHN renal,904 nM
same,GI50,NCI/ADR-RES ovarian,300 nM
same,TGI,NCI/ADR-RES ovarian,3.08 µM
same,GI50,HCC-2998 colon,< 10 nM
same,TGI,HCC-2998 colon,< 10 nM
same,GI50,SF-295 CNS,< 10 nM
same,TGI,SF-295 CNS,129 nM
same,GI50,HCT-15 colon,< 10 nM
same,TGI,HCT-15 colon,114 nM
same,GI50,COLO 205 colon,< 10 nM
same,TGI,COLO 205 colon,< 10 nM
same,GI50,OVCAR-5 ovarian,< 10 nM
same,TGI,OVCAR-5 ovarian,40.9 nM
same,GI50,786-0 renal,< 10 nM
same,GI50,U251 CNS,39.4 nM
same,TGI,U251 CNS,> 100 µM
same,GI50,MDA-MB-468 breast,< 10 nM
same,TGI,MDA-MB-468 breast,< 10 nM
same,GI50,DU-145 prostate,38.8 nM
same,GI50,CCRF-CEM leukemia,< 10 nM
same,TGI,CCRF-CEM leukemia,105 nM
